These results are taken from patent US12268683B2, “Compounds and methods for synergistic activation of M channels” (THE REGENTS OF THE UNIVERSITY OF CALIFORNIA, priority 2018, dated 2025).

Experiment [1] concerns pentylene tetrazole-induced seizures. Briefly: PTZ chemoconvulsant assay. The conditions noted are these: for clonic seizure incidence: alone. In kind it is in vivo, mouse. From the text: We compared anticonvulsant activities of test compounds in male C57BL/6 mice (Charles River) aged 2-3 months. Mice were housed and used according to the recommendations in the Guide for the Care and Use of Laboratory Animals of the National Institutes of Health (NIH Publication, 8th edition, 2011). The study protocol was approved by the Institutional Animal Care and Use Committee of University of California, Irvine, which confirmed that all relevant ethical regulations were adhered to. Chemicals were sourced from Sigma (St. Louis, Mo., USA). A pentylene tetrazole (PTZ) chemoconvulsant assay was used-. […] Following the PTZ injection, mice were caged individually and an observer (GWA) blinded to the drug used recorded, over 20 min, clonic and tonic seizure incidence, and seizure-related mortality.
We quantified the anticonvulsant activities of (E)-2-dodecenal and tridecanal in male C57BL/6 mice (Charles River, Wilmington, Mass.) aged 2-3 months. The mice were housed and used according to the recommendations in the Guide for the Care and Use of Laboratory Animals of the National Institutes of Health (NIH Publication, 8th edition, 2011). The study protocol was approved by the Institutional Animal Care and Use Committee of University of California, Irvine. The chemicals were sourced from Sigma (St. Louis, Mo., USA). We used a pentylene tetrazole (PTZ) chemoconvulsant assay as we previously described (30). We injected the mice intraperitoneally with (E)-2-dodecenal (2 or 20 mgkg^−1) (with or without 2.5 mgkg^−1 XE991) or tridecanal (20 mgkg^−1) solubilized in PBS, or vehicle control (PBS), and then 30 minutes later we injected mice intraperitoneally with 80 mgkg-PTZ. Following the PTZ injection, the mice were caged individually and an observer (GWA) blinded to the experimental condition timed the latency to first seizure.
We compared anticonvulsant activities of 3FMSG in male C57BL/6 mice (Charles River) aged 2-3 months. Mice were housed and used according to the recommendations in the Guide for the Care and Use of Laboratory Animals of the National Institutes of Health (NIH Publication, 8th edition, 2011). The study protocol was approved by the Institutional Animal Care and Use Committee of University of California, Irvine, which confirmed that all relevant ethical regulations were adhered to. Chemicals were sourced from Sigma (St. Louis, Mo., USA). We used a pentylene tetrazole (PTZ) chemoconvulsant assay as we previously described^27. Mice were injected intraperitoneally with 3FMSG (5 mg kg^−1) or vehicle control (PBS) and then 30 minutes later injected intraperitoneally with 80 mg kg^−1 PTZ. Following the PTZ injection, mice were caged individually and an observer (GWA) blinded to the drug used recorded seizure activity over 20 minutes.

The target in a further experiment is KCNQ2/KCNQ3-W265L (Homo sapiens, UniProt O43525+O43526, W265L). In words: TEVC of KCNQ2/KCNQ3-W265L channels. Format: cell-based. From the text:
cRNA transcripts encoding human KCNQ2, KCNQ3, KCNQ4, KCNQ5 (Kv7.2-Kv7.5) were generated by in vitro transcription using the T7 polymerase mMessage mMachine kit (Thermo Fisher Scientific), after vector linearization, from cDNA sub-cloned into plasmids incorporating Xenopus laevis β-globin 5′ and 3′ UTRs flanking the coding region to enhance translation and cRNA stability. cRNA was quantified by spectrophotometry. Mutant KCNQ2 and KCNQ3 cDNAs were generated with site-directed mutagenesis using a QuikChange kit according to the manufacturer's protocol (Stratagene, San Diego, Calif.) and corresponding cRNAs prepared as above. Defolliculated stage V and VI Xenopus laevis oocytes (Ecocyte Bioscience, Austin, Tex.) were injected with KCNQ channel α subunit cRNAs (5-10 ng). The oocytes were incubated at 16° C. in Barth's saline solution (Ecocyte) containing penicillin and streptomycin, with daily washing, for 2-5 days prior to two-electrode voltage-clamp (TEVC) recording.
TEVC recording was performed at room temperature using a OC-725C amplifier (Warner Instruments, Hamden, Conn.) and pClamp8 software (Molecular Devices, Sunnyvale, Calif.) 2-5 days after cRNA injection as described in the section above. The oocytes were placed in a small-volume oocyte bath (Warner) and viewed with a dissection microscope. Unless otherwise stated, chemicals were sourced from Sigma. Bath solution was (in mM): 96 NaCl, 4 KCl, 1 MgCl2, 1 CaCl2, 10 HEPES (pH 7.6). […] The drugs were introduced into the recording bath by gravity perfusion at a constant flow of 1 ml per minute for 3 minutes prior to recording. Pipettes were of 1-2 MΩ resistance when filled with 3 M KCl. Currents were recorded in response to pulses between −80 mV and +40 mV at 20 mV intervals, or a single pulse to +40 mV, from a holding potential of −80 mV, to yield current-voltage relationships, current magnitude, and for quantifying activation rate. Deactivation was recorded at −80 mV after a single pulse to +40 mV, from a holding potential of −80 mV. Electrophysiology data analysis was performed with Clampfit (Molecular Devices) and Graphpad Prism software (GraphPad, San Diego, Calif., USA); values are stated as mean±SD. Raw or normalized tail currents were plotted versus prepulse voltage and fitted with a single Boltzmann function:
As previously described (12), we generated cRNA transcripts encoding human KCNA1, KCNE1, KCNE2, KCNE3, KCNQ1, KCNQ2, KCNQ3, KCNQ4 or KCNQ5 by in vitro transcription using the T7 polymerase mMessage mMachine kit (Thermo Fisher Scientific), after vector linearization, from cDNA sub-cloned into plasmids incorporating Xenopus laevis β-globin 5′ and 3′ UTRs flanking the coding region to enhance translation and cRNA stability. We quantified cRNA by spectrophotometry. […]

The structures appear in SMILES notation. “Also recorded” adds a separate entry of the source.

On to `CC(=O)c1c(O)c(C)c(O)c(Cc2c(O)c3c(c(C(=O)/C=C/c4ccccc4)c2O)OC(C)(C)C=C3)c1O` [MTX, mallotoxin], for which the clonic seizure incidence entry in experiment [1] (10 mg/kg i.p.) was “neither compound reduced clonic seizures alone”; in experiment [1] (20 mg/kg i.p.), “halved”. For the same compound, in experiment [1] (individually), the “suppression of PTZ-induced tonic seizures” value was “ineffective”.
Take `CCCCCCCCC/C=C/C=O` [(E)-2-dodecenal]: the “maximal shift in ΔV0.5activation” value on KCNQ2/KCNQ3-W265L ((E)-2-dodecenal) was −9 mV. The EC50 (commonly the concentration at which the effect is half-maximal) on KCNQ2/KCNQ3-W265L (ΔV0.5activation, read-out: EC50 of (E)-2-dodecenal) is 270 ± 20 nM. In addition, the “latency to first PTZ-induced seizure” value is reported as “threefold” in experiment [1] (2 mgkg−1 i.p.) and “> threefold” in experiment [1] (20 mgkg−1 i.p.).
For the compound `NCC1(CC(=O)O)CCCCC1` [gabapentin, reference compound], the “effect on KCNQ2/KCNQ3-W265L (in words)” value at KCNQ2/KCNQ3-W265L is given as “insensitive”.
In the case of `CS(=O)(=O)N(CC(=O)O)c1cccc(F)c1` [3FMSG], the “effect on KCNQ2/KCNQ3-W265L (in words)” value at KCNQ2/KCNQ3-W265L is “dependent on KCNQ3-W265; also recorded: eliminated effects of 3FMSG”. For the same compound, the “incidence of PTZ-induced tonic seizures” value in experiment [1] (5 mg/kg i.p.) is “reduced by threefold”.
